Measurements published in patent US20250144067A1, “PERSONALIZED STARVATION THERAPY FOR CANCER” (Faeth Therapeutics, Inc., priority 2021, published 2025).
Where a name gives a salt, the structure may show the parent alone.

Columns and labels:
[1] = system: NCI-H292 lung cancer cells; experiment: FDA drug screening, complete media vs cholesterol-free media with simvastatin (TABLE 2); assay type: cell-based, human; conditions: for Cholesterol-free media + simvastatin (0.04 μM) / Complete Media: NCI-H292 cells; for Difference: >0 enhanced anti-cancer activity, about 0 neutral, <0 antagonist
[2] = system: NCI-H292 lung cancer cells; experiment: FDA drug screening, complete media vs cholesterol-free media without statin (TABLE 1); assay type: cell-based, human
[3] = cholesterol-free media with simvastatin 0.04 μM, FDA drug library screen (TABLE 2)
[4] = complete media, FDA drug library screen (TABLE 2)
[5] = complete media minus cholesterol-free media + simvastatin (0.04 μM)
[6] = Complete minus Cholesterol-free; greater than 0 enhanced anti-cancer activity, about 0 neutral, below 0 antagonist
[7] = NCI-H292 cells, FDA drug library screen, cholesterol-free media without statin
[8] = NCI-H292 cells, FDA drug library screen, complete media
[9] = drug in cholesterol-free media with simvastatin 0.04 μM
[10] = complete media vs cholesterol-free media + simvastatin (0.04 μM)
[11] = Complete minus Cholesterol-free; >0 enhanced anti-cancer activity, about 0 neutral, <0 antagonist
[12] = NCI-H292 cells, cholesterol-free media without statin
[13] = cholesterol-free media with simvastatin 0.04 μM, cell growth value in FDA drug screen
[14] = complete media, cell growth value in FDA drug screen
[15] = complete media minus cholesterol-free media + simvastatin
[16] = NCI-H292 cells, cholesterol-free media without statin, FDA drug library screen
[17] = NCI-H292 cells, complete media, FDA drug library screen
[18] = complete vs cholesterol-free media; >0 enhanced anti-cancer activity, about 0 neutral, <0 antagonist
[19] = FDA library drug in cholesterol-free media with simvastatin 0.04 μM
[20] = FDA library drug in complete media
[21] = FDA drug library screen, cholesterol-free media with simvastatin 0.04 μM
[22] = FDA drug library screen, complete media
[23] = complete vs cholesterol-free media; greater than 0 enhanced anti-cancer activity, about 0 neutral, below 0 antagonists

Row | Compound | Difference [1, 10] | Difference [2, 11] | Cholesterol-free [2, 12] | Complete ([2]; NCI-H292 cells, complete media) | Difference [1, 15] | Cholesterol-free [2, 16] | Complete [2, 17] | Difference [2, 18] | further results
1 | CCCC(=O)Nc1ncnc2c1ncn2[C@@H]1O[C@@H]2COP(=O)(O)O[C@H]2[C@H]1OC(=O)CCC [Bucladesine (calcium)] | – | – | – | – | – | – | – | – | Cholesterol-free media + simvastatin (0.04 μM) [1, 3]: 0.8302; Complete Media [1, 4]: 0.804; Difference [1, 5]: −0.03; Difference [2, 6]: −0.13; Cholesterol-free [2, 7]: 0.8949; Complete [2, 8]: 0.7629
2 | CCCC(=O)Nc1ncnc2c1ncn2[C@@H]1O[C@@H]2COP(=O)(O)O[C@H]2[C@H]1OC(=O)CCC [Bucladesine (sodium)] | −0.20 | −0.23 | 1.11 | 0.8768 | – | – | – | – | Cholesterol-free media + simvastatin (0.04 μM) [1, 9]: 1.094; Complete Media ([1]; drug in complete media): 0.8977
3 | CC(C)(C)c1ccc(CN2CCN(C(c3ccccc3)c3ccc(Cl)cc3)CC2)cc1 (stereo not drawn) [Buclizine (dihydrochloride)] | – | – | – | – | 0.05 | 0.6562 | 1.363 | 0.71 | Cholesterol-free media + simvastatin (0.04 μM) [1, 13]: 0.9719; Complete Media [1, 14]: 1.018
4 | CCCC1O[C@@H]2C[C@H]3[C@@H]4CCC5=CC(=O)C=C[C@]5(C)[C@H]4[C@@H](O)C[C@]3(C)[C@]2(C(=O)CO)O1 (stereo partly drawn) [Budesonide] | −0.61 | – | – | – | – | 0.6924 | 1.034 | 0.34 | Cholesterol-free media + simvastatin (0.04 μM) [1, 19]: 1.254; Complete Media [1, 20]: 0.6405
5 | CCCCOc1ccc(CC(=O)NO)cc1 [Bufexamac] | – | – | – | – | 0.56 | 1.346 | 1.459 | 0.11 | Cholesterol-free media + simvastatin (0.04 μM) [1, 21]: 1.029; Complete Media [1, 22]: 1.594
6 | COc1cc(OC)c(C(=O)CCCN2CCCC2)c(OC)c1 [Buflomedil (hydrochloride)] | – | −0.02 | – | – | 0.79 | 0.6014 | 0.5837 | – | Cholesterol-free media + simvastatin (0.04 μM) [1, 21]: 0.7629; Complete Media [1, 22]: 1.555
7 | CCCCNc1cc(C(=O)O)cc(S(N)(=O)=O)c1Oc1ccccc1 [Bumetanide] | – | 0.04 | – | – | 0.09 | 0.6987 | 0.7406 | – | Cholesterol-free media + simvastatin (0.04 μM) [1, 13]: 1.046; Complete Media [1, 14]: 1.138
8 | CCCCN1CCCCC1C(=O)Nc1c(C)cccc1C (stereo not drawn) [Bupivacaine (hydrochloride)] | −0.17 | – | – | – | – | – | – | – | Cholesterol-free media + simvastatin (0.04 μM) [1, 9]: 1.059; Complete Media ([1]; drug in complete media): 0.8922; Difference [2, 6]: −0.15; Cholesterol-free [2, 7]: 1.158; Complete [2, 8]: 1.01
9 | O=C1CC2(CCCC2)CC(=O)N1CCCCN1CCN(c2ncccn2)CC1 [Buspirone (hydrochloride)] | – | – | 1.286 | 0.8529 | 0.11 | – | – | – | Cholesterol-free media + simvastatin (0.04 μM) [1, 13]: 0.8828; Complete Media [1, 14]: 0.9935; Difference [2, 23]: −0.43
10 | CS(=O)(=O)OCCCCOS(C)(=O)=O [Busulfan] | −0.67 | 0.07 | – | – | – | 1.648 | 1.719 | – | Cholesterol-free media + simvastatin (0.04 μM) [1, 19]: 1.936; Complete Media [1, 20]: 1.265
11 | CCCCOC(=O)c1ccc(N)cc1 [Butamben] | −0.58 | −0.20 | 1.171 | 0.9712 | – | – | – | – | Cholesterol-free media + simvastatin (0.04 μM) [1, 19]: 1.665; Complete Media [1, 20]: 1.081
12 | CN(Cc1ccc(C(C)(C)C)cc1)Cc1cccc2ccccc12 [Butenafine (Hydrochloride)] | – | – | 1.694 | 1.364 | – | – | – | – | Cholesterol-free media + simvastatin (0.04 μM) [1, 3]: 1.078; Complete Media [1, 4]: 1.061; Difference [1, 5]: −0.02; Difference [2, 23]: −0.33
13 | CCCCC1OC(=O)c2ccccc21 (stereo not drawn) [Butylphthalide] | −0.17 | – | – | – | – | 0.6966 | 1.343 | 0.65 | Cholesterol-free media + simvastatin (0.04 μM) [1, 9]: 1.292; Complete Media ([1]; drug in complete media): 1.12
